Our source for the residual activity and IC50 values is ChEMBL document CHEMBL1139630, “Structure-activity relationship of N-methyl-bisindolylmaleimide derivatives as cell death inhibitors” (Bioorg Med Chem Lett, 2005).

Test [1] addresses T1, AMP-activated protein kinase, AMPK (Homo sapiens) (UniProt P54646+O43741+P54619+Q9UGJ0+Q9Y478+Q13131+Q9UGI9). Description: Residual activity of AMP-activated Protein Kinase (AMPK) at 1 uM.
For test [2], the target named is Ribosomal protein S6 kinase alpha-3 (Homo sapiens) (UniProt P51812). Description: Residual activity of Ribosomal S6 kinase 2 (RSK2) at 1 uM.
Ribosomal protein S6 kinase alpha-3 (Homo sapiens), sequence (P51812 whole entry): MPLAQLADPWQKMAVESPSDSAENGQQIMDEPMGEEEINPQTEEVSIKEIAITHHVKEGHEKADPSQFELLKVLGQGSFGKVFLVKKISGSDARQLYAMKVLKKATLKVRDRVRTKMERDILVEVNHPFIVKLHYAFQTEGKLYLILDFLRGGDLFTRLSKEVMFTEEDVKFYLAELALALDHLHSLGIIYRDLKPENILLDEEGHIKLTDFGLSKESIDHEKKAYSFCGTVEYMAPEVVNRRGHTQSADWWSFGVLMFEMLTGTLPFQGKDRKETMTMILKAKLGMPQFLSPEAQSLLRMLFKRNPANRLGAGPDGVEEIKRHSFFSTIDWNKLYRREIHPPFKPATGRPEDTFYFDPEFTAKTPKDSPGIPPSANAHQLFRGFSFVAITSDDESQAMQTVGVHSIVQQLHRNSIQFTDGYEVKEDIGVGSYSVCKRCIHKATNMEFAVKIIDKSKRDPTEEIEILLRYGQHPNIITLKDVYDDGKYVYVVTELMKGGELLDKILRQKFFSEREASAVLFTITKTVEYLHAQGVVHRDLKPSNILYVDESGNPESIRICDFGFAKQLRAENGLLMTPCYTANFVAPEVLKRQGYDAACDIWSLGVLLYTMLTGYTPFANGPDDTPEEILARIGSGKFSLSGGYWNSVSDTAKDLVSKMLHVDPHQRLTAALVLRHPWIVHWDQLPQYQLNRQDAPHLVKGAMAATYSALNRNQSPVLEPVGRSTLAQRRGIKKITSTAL
The target in test [3] is Glycogen synthase kinase-3 beta (Homo sapiens) (UniProt P49841). Description: Residual activity of Glycogen synthase kinase-3 beta (GSK3-beta) at 50 uM.
Glycogen synthase kinase-3 beta (Homo sapiens), sequence (P49841 whole entry, looked up): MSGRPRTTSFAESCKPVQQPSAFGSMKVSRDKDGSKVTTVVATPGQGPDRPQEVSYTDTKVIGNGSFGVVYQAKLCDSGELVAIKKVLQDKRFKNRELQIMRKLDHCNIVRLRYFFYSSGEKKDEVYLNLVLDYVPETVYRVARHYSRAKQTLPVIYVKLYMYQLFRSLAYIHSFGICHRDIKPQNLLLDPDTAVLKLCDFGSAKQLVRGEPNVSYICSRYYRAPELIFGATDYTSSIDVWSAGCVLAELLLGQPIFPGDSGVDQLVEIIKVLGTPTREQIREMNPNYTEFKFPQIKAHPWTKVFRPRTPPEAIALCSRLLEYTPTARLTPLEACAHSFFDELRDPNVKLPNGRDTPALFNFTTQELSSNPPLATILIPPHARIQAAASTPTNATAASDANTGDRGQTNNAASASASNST
For test [4], the target named is T1, AMP-activated protein kinase, AMPK (Homo sapiens). Description: Residual activity of AMP-activated Protein Kinase (AMPK) at 50 uM.
For test [5], the target named is Ribosomal protein S6 kinase alpha-3 (Homo sapiens) (UniProt P51812). Description: Residual activity of Ribosomal S6 kinase 2 (RSK2) at 50 uM.
Test [6] has as its target T2, Ribosomal protein S6 kinase beta-1 (Homo sapiens, UniProt P23443). The note with it: 50 uM.
Target sequence in this assay (P23443 whole entry, looked up): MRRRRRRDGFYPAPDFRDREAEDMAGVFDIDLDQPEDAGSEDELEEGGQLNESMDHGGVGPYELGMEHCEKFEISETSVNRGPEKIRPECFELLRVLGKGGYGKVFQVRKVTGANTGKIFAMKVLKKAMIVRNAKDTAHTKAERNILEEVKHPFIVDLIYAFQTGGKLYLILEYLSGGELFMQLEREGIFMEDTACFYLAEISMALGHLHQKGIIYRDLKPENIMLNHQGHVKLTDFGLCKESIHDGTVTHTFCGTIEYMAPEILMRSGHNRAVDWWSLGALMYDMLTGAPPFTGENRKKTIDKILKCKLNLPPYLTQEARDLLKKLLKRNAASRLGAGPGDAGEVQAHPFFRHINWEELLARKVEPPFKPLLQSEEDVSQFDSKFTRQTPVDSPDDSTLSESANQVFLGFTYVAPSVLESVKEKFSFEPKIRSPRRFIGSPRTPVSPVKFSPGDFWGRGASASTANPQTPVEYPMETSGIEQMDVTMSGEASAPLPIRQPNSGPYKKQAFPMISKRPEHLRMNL
Description: Inhibition of Ribosomal protein S6 kinase 1 (S6K1) at 50 uM
Test [7] concerns the target T3, Serine/threonine-protein kinase Chk1 (Homo sapiens) (UniProt O14757).
T3 sequence (whole entry): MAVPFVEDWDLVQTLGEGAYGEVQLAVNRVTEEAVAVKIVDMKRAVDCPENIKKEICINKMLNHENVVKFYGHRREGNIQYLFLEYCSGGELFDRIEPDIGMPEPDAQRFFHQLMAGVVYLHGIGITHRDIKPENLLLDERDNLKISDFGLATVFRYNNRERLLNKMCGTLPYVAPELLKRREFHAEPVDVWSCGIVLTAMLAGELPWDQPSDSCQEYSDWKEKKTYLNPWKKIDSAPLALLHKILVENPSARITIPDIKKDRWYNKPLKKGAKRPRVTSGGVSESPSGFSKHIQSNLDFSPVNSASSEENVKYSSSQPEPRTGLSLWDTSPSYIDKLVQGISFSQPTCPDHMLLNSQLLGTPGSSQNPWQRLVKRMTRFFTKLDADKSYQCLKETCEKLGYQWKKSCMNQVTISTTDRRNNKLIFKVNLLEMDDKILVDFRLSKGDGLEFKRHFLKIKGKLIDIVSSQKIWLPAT
Put plainly: Residual activity of Serine/threonine-protein kinase Chk1 (CHK1) at 50 uM.

For test [8], the target named is Ribosomal protein S6 kinase alpha-5 (Homo sapiens) (UniProt O75582). Description: Residual activity of MSK-1 kinase (MSK1) at 50 uM.
Ribosomal protein S6 kinase alpha-5 (Homo sapiens), sequence (O75582 whole entry, looked up): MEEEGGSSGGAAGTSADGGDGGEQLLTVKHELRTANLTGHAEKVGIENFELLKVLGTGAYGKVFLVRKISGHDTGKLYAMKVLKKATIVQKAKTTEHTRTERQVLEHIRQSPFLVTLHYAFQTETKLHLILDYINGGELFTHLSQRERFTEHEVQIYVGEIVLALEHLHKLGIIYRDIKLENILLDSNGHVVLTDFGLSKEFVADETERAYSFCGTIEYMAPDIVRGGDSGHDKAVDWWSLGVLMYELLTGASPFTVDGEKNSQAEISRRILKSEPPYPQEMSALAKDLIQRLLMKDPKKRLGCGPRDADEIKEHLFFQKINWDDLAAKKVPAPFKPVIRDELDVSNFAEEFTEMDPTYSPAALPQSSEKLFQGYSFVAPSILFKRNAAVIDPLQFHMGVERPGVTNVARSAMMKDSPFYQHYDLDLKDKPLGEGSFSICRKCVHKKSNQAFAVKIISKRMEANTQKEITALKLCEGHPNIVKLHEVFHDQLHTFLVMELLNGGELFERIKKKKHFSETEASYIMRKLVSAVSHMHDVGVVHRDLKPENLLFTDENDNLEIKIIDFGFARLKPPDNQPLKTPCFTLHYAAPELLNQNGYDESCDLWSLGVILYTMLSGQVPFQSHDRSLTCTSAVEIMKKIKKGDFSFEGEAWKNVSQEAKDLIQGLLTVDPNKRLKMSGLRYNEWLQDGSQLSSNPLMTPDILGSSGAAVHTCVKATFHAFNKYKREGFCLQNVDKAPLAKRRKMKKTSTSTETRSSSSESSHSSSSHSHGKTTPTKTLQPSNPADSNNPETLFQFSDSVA
The target in test [9] is Protein kinase C alpha type (Homo sapiens) (UniProt P17252). Description: Residual activity of Protein kinase C alpha (PKCalpha) at 50 uM.
For test [10], the target named is T4, Serine/threonine-protein kinase Sgk1 (Homo sapiens) (UniProt O00141).
T4 sequence (whole entry): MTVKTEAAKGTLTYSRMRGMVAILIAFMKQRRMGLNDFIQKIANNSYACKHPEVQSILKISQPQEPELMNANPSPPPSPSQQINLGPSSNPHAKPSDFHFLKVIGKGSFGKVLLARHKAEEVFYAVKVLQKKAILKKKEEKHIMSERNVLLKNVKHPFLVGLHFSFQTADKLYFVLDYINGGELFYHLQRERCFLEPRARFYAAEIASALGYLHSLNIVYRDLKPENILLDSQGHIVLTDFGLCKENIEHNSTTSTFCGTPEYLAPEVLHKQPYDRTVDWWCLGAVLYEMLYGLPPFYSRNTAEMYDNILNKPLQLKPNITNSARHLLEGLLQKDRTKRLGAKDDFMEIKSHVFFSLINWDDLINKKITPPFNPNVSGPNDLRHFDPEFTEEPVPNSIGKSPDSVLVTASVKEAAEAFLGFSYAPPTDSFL
Description: Residual activity of Serum/glucocorticoid regulated kinase (SGK) at 50 uM.

Test [11] deals with T2, Ribosomal protein S6 kinase beta-1. Put plainly: Inhibition of Ribosomal protein S6 kinase 1 (S6K1).
Target sequence in this assay (P23443 whole entry): as the sequence (P23443 whole entry, looked up) above

Consider `CN(C)CCCn1cc(C2=C(c3c[nH]c4ccccc34)C(=O)NC2=O)c2ccccc21`, for which the figures for the residual activity in [1] and in test [2] were 54% and 9%, respectively.
A word on the IC50: it is the concentration that gives 50% inhibition. Low values mean inhibition by little substance, high ones a need for much substance. In the case of `CN1C(=O)C(c2c[nH]c3ccccc23)=C(c2cn(CCCN)c3ccccc23)C1=O`, the residual activity was 94% in test [3]; 88% in test [4]; 106% in [5]; 28% in test [6]; 93% in test [7]; 90% in test [8]. The residual activity in test [9] worked out at 66%; in test [10], 109%. For the same compound, half-maximal inhibition in [11] (IC50) was put at 25 µM.
